Converted amounts (≈) assume the structure as drawn. Structures can show the parent of a compound that is named as a salt.

Series [1] deals with S. dysenteriae (CMCC51252). Put plainly: Antibacterial microdilution titre assay (resazurin), MIC. The series is classed as cell-based. The note with it: Shigella dysenteriae. (Dilution methods test growth across graded concentrations, often in twofold steps.)
Series [2] has as its system E. coli (CMCC44102). The series is described as above. The following applies: Escherichia coli.
Series [3] relates to S. typhimurium (CMCC44102). The description is as above. The following applies: Salmonella enterica.
The test system of series [4] is S. aureus (CMCC26003). Described as above. The following applies: Gram-positive, 37 °C, 5–6 h.
Series [5] deals with MRSA. Described as above. The following applies: for MIC: MRSA, Gram-positive, 37 °C, 5–6 h.
For series [6], the system named is B. subtilis (CMCC63501). Described as above. The note with it: Gram-positive, 37 °C, 5–6 h.
Series [7] concerns B. cereus (CMCC63302). The description is as above. The following applies: Gram-positive, 37 °C, 5–6 h.
The nature of series [8]: Cytotoxicity, MTT method. The note with it: human. How it is done:
(§1) These compounds were also tested for their in vitro cytotoxicity against three human tumor cell lines, A549 (human lung adenocarcinoma), HeLa (human cervical carcinoma) and HepG2 (human liver hepatocellular carcinoma), using the MTT method as described.
(§2) The three tumor cell lines were generously provided by Kunming Institute of Zoology, Chinese Academy of Sciences. The cytotoxic activities of the tested compounds were assayed according to the MTT method by using 96 well plates. Briefly, the cells were cultured in RPMI-1640 medium, supplemented with 10% fetal bovine serum in a humidified atmosphere with 5% CO2 at 37 °C. One hundred μL of adherent cells at the density of 5 × 10^4 cell/mL was seeded into each well of 96-well cell culture plates and incubated in 5% CO2 at 37 °C for 24 h to form a monolayer on the flat bottoms. Then, removed the supernatant per well and subsequently added with 100 μL of fresh medium and 100 μL of medium containing a test compound. The plate was then incubated in 5% CO2at 37 °C. After 72 h, 20 μL of 5 mg/mL MTT in DMSO was added into each well and incubated for 4 h. The supernatant per well was carefully removed and 150 μL of DMSO was added. The plate was then vortex shaken for 15 min to dissolve blue formazan crystals. The optical density (OD) of each well was measured on a Genois microplate reader (Tecan GENios, Männedorf, Switzerland) at the wavelength of 570 nm. All experiments were performed in triplicate and adriamycin was used as a positive control. In each experiment, each of the tumor cell lines was exposed to the test compound at concentrations of 50, 25, 12.5, 6.25, 3.125, 1.5625 µg/mL. The inhibitory rate of cell growth was calculated according to the following formula: Inhibition rate (%) = (ODcontrol− ODtreated)/ODcontrol× 100%. IC50 values were calculated by SPSS 16.0 statistic software. The values were based on three individual experiments and expressed as means ± standard deviation (SD).
(Tetrazolium dyes change colour on reduction, which living cells bring about.)

The test system of series [9] is A549 (human lung adenocarcinoma). The experiment in a line: Cytotoxicity, MTT method. The note with it: read-out: Cytotoxicity IC50, A549 cells, 72 h, mean ± SD (n = 3). How it is done:
as §1, §2

In series [10] the test system is HeLa (human cervical carcinoma). Put plainly: Cytotoxicity, MTT method. The note with it: read-out: Cytotoxicity IC50, HeLa cells, 72 h, mean ± SD (n = 3). As for the experimental part: as §1, §2
Where [11] appears, read: Staphylococcus aureus, CMCC26003, S. aureus (CMCC26003).
The mark [12] stands for this setting: Bacillus subtilis, CMCC63501, B. subtilis (CMCC63501).
[13] abbreviates: Bacillus cereus, CMCC63302, B. cereus (CMCC63302).
Where [14] appears, read: Cytotoxicity IC50, A549 cells, mean ± SD (n = 3).
Where [15] appears, read: Cytotoxicity IC50, HeLa cells, mean ± SD (n = 3).

The term MIC denotes the lowest concentration found to suppress growth. For the molecule `CC1=C(C(=O)O)N2C(=O)[C@@H](NC(=O)[C@H](N)C3=CCC=CC3)[C@H]2SC1` [C, cefradine, reference compound], the MIC is 12.5 µg/mL (≈ 35.8 µM) in series [1]; 12.5 µg/mL (≈ 35.8 µM) in [2]; 12.5 µg/mL (≈ 35.8 µM) in series [3]; 50 µg/mL (≈ 143 µM) in [4] (setting [11]); above 200 µg/mL in [5] (Staphylococcus aureus); 200 µg/mL (≈ 572 µM) in [6] (setting [12]). In series [7] (setting [13]), 200 µg/mL (≈ 572 µM) was the least that counted as inhibitory (MIC).

One may read the IC50 as the concentration that gives 50% inhibition. As for `CC1(O)CCC2(C(=O)O)CCC3(C)C(=CCC4C5(C)CC(O)C(O)C(C)(C)C5CCC43C)C2C1` (stereo not drawn) [Compound 1, 2α,3β,20α-trihydroxy-30-norolean-12-en-28-oic acid], the MIC in [1], in [2], in [3], in series [4] (setting [11]), in [5] (Staphylococcus aureus) and in [6] (setting [12]) was above 200 µg/mL each time. Also, the MIC in series [7] (setting [13]) was above 200 µg/mL. Also, the IC50 at 72 h in series [8], in series [8] (setting [14]) and in [8] (setting [15]) was above 100 µM throughout.

For `C=C1CCC2(C(=O)O)CCC3(C)C(=CCC4C5(C)CC(O)C(O)C(C)(C=O)C5CCC43C)C2C1` (stereo not drawn) [Compound 2, 2α,3β-dihydroxy-23-oxo-30-norolean-12,20(29)-dien-28-oic acid], the MIC in [1], in series [2], in [3], in series [4] (setting [11]), in [5] (Staphylococcus aureus) and in [6] (setting [12]) was above 200 µg/mL each time. The MIC in series [7] (setting [13]) is above 200 µg/mL. Further, the IC50 at 72 h in [8], in series [8] (setting [14]) and in [8] (setting [15]) was above 100 µM in each case.

In the case of `C=C1CC[C@]2(C(=O)O)CC[C@]3(C)C(=CCC4[C@@]5(C)CC[C@H](O)C(C)(C)C5CC[C@]43C)C2C1` (stereo partly drawn) [Compound 3, 3β-akebonoic acid], the MIC was above 200 µg/mL in series [1]; above 200 µg/mL in series [2]; above 200 µg/mL in series [3]; 25 µg/mL (≈ 56.7 µM) in series [4] (S. aureus (CMCC26003)); 12.5 to 25 µg/mL (≈ 28.4 to 56.7 µM) in series [4] (setting [11]); 25 µg/mL (≈ 56.7 µM) in [5]. Further, the MIC was 12.5 to 25 µg/mL (≈ 28.4 to 56.7 µM) in [5] (Staphylococcus aureus); 12.5 µg/mL (≈ 28.4 µM) in series [6] (B. subtilis (CMCC63501)); 12.5 to 25 µg/mL (≈ 28.4 to 56.7 µM) in [6] (setting [12]); 25 µg/mL (≈ 56.7 µM) in [7] (B. cereus (CMCC63302)); 12.5 to 25 µg/mL (≈ 28.4 to 56.7 µM) in series [7] (setting [13]). Moreover, the “MIC toward MRSA, fold stronger than the reference compound kanamycin” value in series [5] (MIC compared with kanamycin) was “about five-fold”. Moreover, the IC50 at 72 h amounted to 52.9 ± 5.28 µM in [8], 49.5 ± 8.64 µM in series [8] (setting [14]) and 28.6 ± 7.41 µM in series [8] (setting [15]).

With `C=C1CC[C@]2(C(=O)O)CC[C@]3(C)C(=CCC4[C@@]5(C)C[C@@H](O)[C@H](O)C(C)(C)C5CC[C@]43C)C2C1` (stereo partly drawn) [Compound 4, 2α,3β-dihydroxy-30-noroleana-12,20(29)-dien-28-oic acid], the MIC in series [1] is above 200 µg/mL; in [2], above 200 µg/mL; in series [3], above 200 µg/mL; in [4] (setting [11]) it was 200 µg/mL (≈ 438 µM); in series [5] (Staphylococcus aureus), 200 µg/mL (≈ 438 µM); in series [6] (setting [12]) it was 25 µg/mL (≈ 54.7 µM). It took 50 µg/mL (≈ 109 µM) to inhibit growth in series [7] (setting [13]) (MIC). Besides, in series [9], the IC50 was determined as 8.77 ± 0.59 µM. Also, the IC50 at 72 h was 14.3 ± 0.49 µM in [8], 8.8 µM in series [8] (setting [14]) and 16.33 ± 0.12 µM in series [8] (setting [15]).

Consider `C=C1CC[C@]2(C(=O)O)CC[C@]3(C)C(=CCC4[C@@]5(C)CC[C@@H](O)C(C)(C)C5CC[C@]43C)C2C1` (stereo partly drawn) [Compound 5, 3α-akebonoic acid], for which the MIC in series [1] was above 200 µg/mL; in [2], above 200 µg/mL; in [3], above 200 µg/mL; in series [4] (setting [11]) it was above 200 µg/mL; in series [5] (Staphylococcus aureus), above 200 µg/mL; in [6] (setting [12]), 50 µg/mL (≈ 113 µM). For the same molecule, 25 µg/mL (≈ 56.7 µM) was the least that counted as inhibitory in [7] (setting [13]) (MIC). Further, the IC50 in [10] is 5.61 µM. The IC50 at 72 h in [8] was 10.4 ± 1.17 µM; in [8] (setting [14]), 10.6 ± 0.69 µM; in series [8] (setting [15]), 5.6 µM.

In the case of `C=C1CC[C@]2(C(=O)O)CC[C@]3(C)C(=CCC4[C@@]5(C)CC[C@@H](O)[C@](C)(CO)C5CC[C@]43C)C2C1` (stereo partly drawn) [Compound 6, quinatic acid], the MIC in [1] is above 200 µg/mL; in series [2], above 200 µg/mL; in series [3], above 200 µg/mL; in series [4] (setting [11]) it was above 200 µg/mL; in [5] (Staphylococcus aureus), above 200 µg/mL; in series [6] (setting [12]), 12.5 µg/mL (≈ 27.4 µM). Also, the MIC in series [7] (setting [13]) amounted to 50 µg/mL (≈ 109 µM). Moreover, the IC50 at 72 h in series [8], in [8] (setting [14]) and in series [8] (setting [15]) was above 100 µM each time.

For the molecule `NC[C@H]1O[C@H](O[C@H]2[C@H](O)[C@@H](O[C@H]3O[C@H](CO)[C@@H](O)[C@H](N)[C@H]3O)[C@H](N)C[C@@H]2N)[C@H](O)[C@@H](O)[C@@H]1O` [K, kanamycin sulfate, reference compound], the MIC in [1] stood at 3.9 µg/mL; in [2], 3.9 µg/mL; in series [3], 3.9 µg/mL; in series [4] (setting [11]), 1.9 µg/mL; in series [5] (Staphylococcus aureus), 125 µg/mL; in series [6] (setting [12]), 3.9 µg/mL. The same molecule had an MIC in series [7] (setting [13]) of 3.9 µg/mL.

The values above are taken from paper PMC6271860, “Bioactive 30-Noroleanane Triterpenes from the Pericarps of Akebia trifoliata” (Molecules, 2014).
